Like-named read-outs stand apart in the source and are kept apart here.
What was measured:
[1] = target: p38a/MK2 (Homo sapiens (Human), UniProt P49137+Q16539); test: p38a/MK2 biochemical assay: activation of MK2 by p38, FITC-HSP27 peptide phosphorylation (IMAP FP); conditions: 10-point 1:3 dilution, 60 pM active p38a, 1 nM inactive MK2, 10 μM ATP, 2 h incubation
[2] = target: p38a/PRAK (Homo sapiens (Human), UniProt Q16539); test: p38a/PRAK biochemical assay: activation of PRAK by p38, FITC-HSP27 peptide phosphorylation (IMAP FP); conditions: 10-point 1:3 dilution, top dose 300 μM, 60 pM active p38a, 1 nM inactive PRAK, 10 μM ATP, 2 h incubation; for IC50: read-out: p38a/PRAK Enzyme pIC50 (converted)
p38a/PRAK, sequence (Q16539 whole entry): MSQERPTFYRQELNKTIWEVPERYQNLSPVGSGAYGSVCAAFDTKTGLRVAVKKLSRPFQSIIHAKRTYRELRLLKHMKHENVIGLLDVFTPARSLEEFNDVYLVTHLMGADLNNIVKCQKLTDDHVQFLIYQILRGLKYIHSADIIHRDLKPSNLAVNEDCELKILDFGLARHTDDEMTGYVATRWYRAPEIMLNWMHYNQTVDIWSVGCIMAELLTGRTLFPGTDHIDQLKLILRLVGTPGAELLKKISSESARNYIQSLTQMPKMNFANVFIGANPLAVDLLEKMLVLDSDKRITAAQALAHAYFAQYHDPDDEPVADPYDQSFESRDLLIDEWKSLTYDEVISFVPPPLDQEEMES
How it was run: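 GST-tagged MK2 (F46–H400) and PRAK (M1–Q471), expressed in E. coli, activated by p38 and phosphorylate FITC-HSP27 peptide over 2 h with compound; readout by IMAP fluorescence polarisation (ex 485/em 528 nm). Ten-point 1:3 dilutions, top dose 1 μM for MK2 and 300 μM for PRAK. IC50 after vehicle normalisation; selectivity = IC50(PRAK)/IC50(MK2).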

[3] = top dose 1 μM, read-out: p38a/MK2 (1 μM) Enzyme pIC50 (converted)
[4] = top dose 10 μM, read-out: p38a/MK2 (10 μM) Enzyme pIC50 (converted)

p38a/MK2, sequence (P49137 46-400): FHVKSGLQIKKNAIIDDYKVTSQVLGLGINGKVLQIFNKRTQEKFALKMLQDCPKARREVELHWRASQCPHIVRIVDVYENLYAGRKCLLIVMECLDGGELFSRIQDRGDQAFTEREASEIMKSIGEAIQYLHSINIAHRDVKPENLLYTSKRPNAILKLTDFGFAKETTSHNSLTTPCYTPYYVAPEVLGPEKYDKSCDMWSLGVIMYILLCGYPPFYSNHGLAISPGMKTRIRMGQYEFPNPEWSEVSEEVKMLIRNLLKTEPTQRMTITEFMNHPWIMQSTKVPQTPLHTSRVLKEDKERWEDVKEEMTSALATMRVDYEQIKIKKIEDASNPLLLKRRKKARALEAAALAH
p38a/MK2, sequence (Q16539 whole entry): as the sequence (Q16539 whole entry) above

SMILES	IC50 [1, 3] [nM]	IC50 [2] [nM]	other results
[2H]C([2H])(Oc1cc(C)n(-c2c(C)cnc(-c3ccnc(C(C)(C)O)c3F)c2F)c(=O)c1Cl)c1ncc(F)cc1F (single isomer, unassigned) [Example 65A, rel-3-chloro-1-[3,3′-difluoro-2′-(2-hydroxypropan-2-yl)-5-methyl-[2,4′-bipyridin]-4-yl]-4-[(3,5-difluoropyridin-2-yl)(2H2)methoxy]-6-methylpyridin-2-one]	3.98	200	–
[2H]C([2H])(Oc1cc(C)n(-c2c(C)cnc(-c3ccnc(C(C)(C)O)c3F)c2F)c(=O)c1Cl)c1ncc(F)cc1F (single isomer, unassigned) [Example 65B, rel-3-chloro-1-[3,3′-difluoro-2′-(2-hydroxypropan-2-yl)-5-methyl-[2,4′-bipyridin]-4-yl]-4-[(3,5-difluoropyridin-2-yl)(2H2)methoxy]-6-methylpyridin-2-one]	> 100	79400	–
[2H]C([2H])([2H])C(O)(c1nccc(-c2ncc(C)c(-n3c(C)cc(OCc4ncc(F)cc4F)c(Cl)c3=O)c2F)n1)C([2H])([2H])[2H] (single isomer, unassigned) [Example 66A, rel-3-chloro-4-((3,5-difluoropyridin-2-yl)methoxy)-3′-fluoro-2′-(2-(2-hydroxypropan-2-yl-1,1,1,3,3,3-d6)pyrimidin-4-yl)-5′,6-dimethyl-2H-[1,4′-bipyridin]-2-one]	> 100	> 316000	–
[2H]C([2H])([2H])C(O)(c1nccc(-c2ncc(C)c(-n3c(C)cc(OCc4ncc(F)cc4F)c(Cl)c3=O)c2F)n1)C([2H])([2H])[2H] (single isomer, unassigned) [Example 66B, rel-3-chloro-4-((3,5-difluoropyridin-2-yl)methoxy)-3′-fluoro-2′-(2-(2-hydroxypropan-2-yl-1,1,1,3,3,3-d6)pyrimidin-4-yl)-5′,6-dimethyl-2H-[1,4′-bipyridin]-2-one]	6.31	1000	–
[2H]C([2H])(Oc1cc(C)n(-c2c(C)cnc(-c3ccnc(C(O)(C([2H])([2H])[2H])C([2H])([2H])[2H])n3)c2F)c(=O)c1Cl)c1ncc(F)cc1F (single isomer, unassigned) [Example 67A, rel-3-chloro-4-((3,5-difluoropyridin-2-yl)methoxy-d2)-3′-fluoro-2′-(2-(2-hydroxypropan-2-yl-1,1,1,3,3,3-d6)pyrimidin-4-yl)-5′,6-dimethyl-2H-[1,4′-bipyridin]-2-one]	1.58	316	–
[2H]C([2H])(Oc1cc(C)n(-c2c(C)cnc(-c3ccnc(C(O)(C([2H])([2H])[2H])C([2H])([2H])[2H])n3)c2F)c(=O)c1Cl)c1ncc(F)cc1F (single isomer, unassigned) [Example 67B, rel-3-chloro-4-((3,5-difluoropyridin-2-yl)methoxy-d2)-3′-fluoro-2′-(2-(2-hydroxypropan-2-yl-1,1,1,3,3,3-d6)pyrimidin-4-yl)-5′,6-dimethyl-2H-[1,4′-bipyridin]-2-one]	79.4	31600	–
[2H]C([2H])(Oc1cc(C)n(-c2c(C)cnc(-c3cccc(C(C)(C)O)[n+]3[O-])c2F)c(=O)c1Cl)c1ncc(F)cc1F (single isomer, unassigned) [Example 68B, rel-4′-{3-chloro-4-[(3,5-difluoropyridin-2-yl) (2H2)methoxy]-6-methyl-2-oxopyridin-1-yl}-3′-fluoro-6-(2-hydroxypropan-2-yl)-5′-methyl-[2,2′-bipyridin]-1-ium-1-olate]	0.2	398	–
Cc1cnc(-c2cccc([C@@](C)(O)CO)n2)cc1-n1c(C)cc(OCc2ncc(F)cc2F)c(Cl)c1=O (stereo in doubt) [Example 36A, rel-3-chloro-4-[(3,5-difluoropyridin-2-yl)methoxy]-2′-[6-(1,2-dihydroxypropan-2-yl)pyridin-2-yl]-5′,6-dimethyl-[1,4′-bipyridin]-2-one]	–	–	p38a/MK2 (1 μM) Enzyme pIC50 ([1]; top dose 1 μM): 8.3; p38a/PRAK Enzyme pIC50 [2]: 5.3
Cc1cnc(-c2ccnc(C(C)(C)O)n2)cc1-c1c(C)cc(OCc2ncc(F)cc2F)c(Cl)c1F [Example 1, 2-[4-(4-{3-chloro-4-[(3,5-difluoropyridin-2-yl)methoxy]-2-fluoro-6-methylphenyl}-5-methylpyridin-2-yl)pyrimidin-2-yl]propan-2-ol]	–	> 316000	p38a/MK2 (10 μM) Enzyme pIC50 ([1]; top dose 10 μM): 5.2
Cc1sc(-c2ccnc(C(C)(C)O)n2)nc1-n1c(C)cc(OCc2ncc(F)cc2F)c(Cl)c1=O [Example 17, 3-chloro-4-[(3,5-difluoropyridin-2-yl)methoxy]-1-{2-[2-(2-hydroxypropan-2-yl)pyrimidin-4-yl]-5-methyl-1,3-thiazol-4-yl}-6-methylpyridin-2-one]	–	39800	IC50 [1, 4]: 2510 nM
Cc1cnnc(COc2cc(C)n(-c3cc(-c4ccnc(C(C)(C)O)n4)ncc3C)c(=O)c2Cl)c1 [Example 28A, rel-3-chloro-2′-[2-(2-hydroxypropan-2-yl)pyrimidin-4-yl]-5′,6-dimethyl-4-[(5-methylpyridazin-3-yl)methoxy]-[1,4′-bipyridin]-2-one]	–	> 316000	IC50 [1, 4]: 3980 nM
Cc1cnc(-n2ccc(C(=O)NC3CC3)n2)cc1-n1c(C)cc(OCc2ncc(F)cc2F)c(Cl)c1=O [Example 44A, rel-1-{3-chloro-4-[(3,5-difluoropyridin-2-yl)methoxy]-5′,6-dimethyl-2-oxo-[1,4′-bipyridin]-2′-yl}-N-cyclopropylpyrazole-3-carboxamide]	25.1	6310	–
[2H]C([2H])(Oc1cc(C)n(-c2c(C)cnc(-n3ccc(C(C)(C)O)n3)c2F)c(=O)c1Cl)c1ncc(F)cc1F [Example 58A, rel-3-chloro-4-[(3,5-difluoropyridin-2-yl)(2H2)methoxy]-3′-fluoro-2′-[3-(2-hydroxypropan-2-yl)pyrazol-1-yl]-5′,6-dimethyl-[1,4′-bipyridin]-2-one]	1.26	1000	–
[2H]C([2H])(Oc1cc(C)n(-c2c(C)cnc(-c3cccc(C(C)(C)O)[n+]3[O-])c2F)c(=O)c1Cl)c1ncc(F)cc1F [Example 68A, rel-4′-{3-chloro-4-[(3,5-difluoropyridin-2-yl) (2H2)methoxy]-6-methyl-2-oxopyridin-1-yl}-3′-fluoro-6-(2-hydroxypropan-2-yl)-5′-methyl-[2,2′-bipyridin]-1-ium-1-olate]	> 100	> 316000	–

Source: patent US11680056B2, “MK2 inhibitors and uses thereof” (Xinthera, Inc., priority 2021, dated 2023)
